These results are taken from patent publication US20250134902A1, “DRUG REPURPOSING FOR DELAYED TREATMENT OF ISCHEMIC STROKE” (UNIVESRITY OF NORTH TEXAS HEALTH SCIENCE CENTER, priority 2022, published 2025).

Entries after “also recorded” stand apart in the source; their conditions may differ. A value given as a limit tells only on which side of the number the result lay.

The nature of data set [1]: Maximum tolerated dose, oral gavage 10 days. Type of data set: in vivo. On the procedure: Measuring the maximum tolerated dose of Sigma receptor agonists. Male Sprague-Dawley rats (2-3 per dose) were treated by oral gavage with 6, 18, 54, 108, 135 or 150 mg/kg as estimated from in vitro functional assays and estimates of human intake when used as an antitussive. Rats received a single daily dose for 10 days. Weight, water intake, and food intake were measured daily, and rats were assessed for somnolence, activity, sensitivity to touch, and taste aversion. At the conclusion of the study, rats were humanely euthanized and brain tissue was collected and flash frozen.

The test system of data set [2] is rat model of focal cerebral ischemia (tMCAO). As to the kind of experiment: BrdU cell proliferation in the brain after tMCAO. In kind it is in vivo. On the procedure:
Two days before tMCAO rats were trained to lick 5% sucrose from a 1 ml syringe. After behavioral assessment on Day 1 after tMCAO, rats were randomly assigned to 4 groups in a blinded fashion. Groups included sucrose Vehicle, or 45, 68 or 135 mg/kg oxeladin. Oxeladin was prepared in 5% sucrose and provided to rats from the end of a 1 ml syringe. Starting 48 hours after stroke, rats were administered treatments daily from day 3 to day 14. On days 3-14 rats were injected i.p. with 50 mg/kg bromodeoxyuridine (BrdU; Fisher Bioreagents). At the conclusion of the study, rats were euthanized under deep isoflurane anesthesia. Rats were transcardially perfused with cold saline and either decapitated for brain collection and flash freezing of brain tissue or transcardially perfused with 4% formaldehyde for immunohistochemical studies.
Actions of oxeladin on proliferation in the brain. Fourteen days after tMCAO, rats were transcardially perfused with saline and 4% formaldehyde, as described above. Brains were removed and post-fixed for 48 hours in 4% formaldehyde and then moved to phosphate buffer. Brains were blocked and serial […] coronal sections through the subventricular zone (SVZ) and dorsal hippocampus (HP) were made with a cryostat. Sections were affixed to glass slides and stored at −20° C. until processed. Sections were subjected to antigen retrieval with 10 mM sodium citrate (pH 6.0). Slides were immersed in preheated buffer, placed in a commercial vegetable steamer at 99° C. for 15 minutes and allowed to cool before processing. Immunohistochemistry was performed for the detection of BrdU with a monoclonal primary antibody (Cell Signaling Technology #5292S, 1:5000), followed by a biotinylated secondary antibody (Jackson Immuno Research #715066151, 1:400). […] In the striatum and cortex, the percent area containing BrdU positive cells was assessed in wide-field images captured with a 4× objective using a Keyence BZ-X800 as described above. In the dentate gyrus, individual BrdU+ cells were counted by a treatment-blinded observer in 3 sections per rat (n=6/group). In the SVZ, BrdU+ staining was assessed by a treatment-blinded observer using NEUROLUCIDA® software (Microbrightfield) to map positive cells on the ischemic side (n=4-6).

The next data set concerns neuronal MN9D cell line. Briefly: BDNF secretion via in situ ELISA. The conditions noted are these: 10 μM, 24 hrs, MN9D cells; normalized to maximal response of 10 μM 4-PPBP; mean ± SEM; asterisk = significantly different from 4-PPBP. Type of data set: cell-based. The text has this:
Measuring BDNF secretion via in situ ELISA. […] The in situ ELISA improves on traditional ELISA by seeding BDNF-secreting cells directly into the wells pre-coated with an anti-BDNF primary antibody. BDNF secreted by these cells is immediately captured by the primary antibody, drastically increasing the sensitivity and reproducibility of the ELISA assay. Intact cells are removed […] the addition of the secondary and tertiary antibodies. The amount of BDNF secreted from the neuronal MN9D cells was quantified using an in situ ELISA assay developed using the BDNF EMAX® ImmunoAssay kit (Cat. No. G7611, Promega, Madison, WI). Briefly, a NUNC™ MAXISORP™ flat-bottom, polystyrene, 96-well immunoplate was coated for 48 hrs at 4° C. with an anti-BDNF monoclonal antibody diluted 1:1000 v/v in carbonate buffer containing 25 mM sodium bicarbonate and 25 mM sodium carbonate, pH 9.7. Unbound antibody was removed by washing 5 times with 150 μL of TBST buffer (20 mM Tris-HCl, pH7.6, 150 mM NaCl, and 0.05% (v/v) TWEEN® 20), before blocking non-specific sites first with blocking buffer for 1 hr and then with culture medium for 2 hrs. Cells were seeded at 35,000 cells per well and incubated overnight at 37° C. in a humidified CO2 incubator. The following day, the wells were replaced with fresh culture media containing either experimental compounds or vehicle controls, then incubated for an additional 24 hours. In addition, on the same plate, but in separate wells, BDNF standards were added ranging in concentration from 15.6-250 pg/mL. After 24 hrs incubation with experimental compounds, the media was aspirated and 100 μL of Dulbecco's phosphate saline (D-PBS without Ca^2+ and Mg^2+ supplemented with 5 mM EDTA) was added to each well and incubated for 15 min at 37° C. to promote cell lifting. Cells were then detached from the bottom of wells by triturating in the center and around the edges of the well. After removing all cell debris, the wells were rinsed five times with 150 μL of TBST. The plate was then incubated with 1:500 v/v diluted polyclonal anti-human BDNF antibody for 2 hrs at room temperature. This antibody was removed, and wells were washed five times with 150 μL of TBST, before incubating with 1:200 v/v diluted polyclonal Anti-IgY HRP conjugate for 2 hrs at room temperature. Wells were then washed five times with 150 μL of TBST and the remaining specifically bound polyclonal antibody was detected with the 50 μL colorimetric HRP substrate 3,3′,5,5′-Tetramethylbenzidine (TMB). The reaction was terminated with 50 μL of 1 M HCl and the color intensity was quantified by measuring the absorbance at 450 nm using a FLEXSTATION® 3 plate reader (Molecular Devices, Sunnyvale, CA). […] A one-way ANOVA with a Bonferroni multiple comparisons post-hoc analysis (P<0.05) was applied to determine significant differences between groups.
Further, BDNF secreted from MN9D cells can be detected 24 hours after treatment with S1R ligand, whereas BDNF secreted from the B104 cell line takes 7 days to be detected (Fujimoto, et al., 2012).
An in situ ELISA approach was utilized because of its improved sensitivity related to its rapid capture of secreted BDNF (Balkowiec & Katz, 2000; Dalwadi, et al., 2017). […] Values are averages of 2-10 experiments±SEM, and each experiment was performed in triplicate. Statistical significance at P<0.05 was determined by ANOVA followed by a Bonferroni's post-hoc test and are marked with an asterisk.

In data set [3] the target is T1, human Sigma-2 receptor (S2R) (Homo sapiens, UniProt Q5BJF2).
T1 construct: these cells express the endogenous S2R; endogenous in cells; host or cells: untransfected human MCF-7 cells
T1 sequence (Q5BJF2 whole entry): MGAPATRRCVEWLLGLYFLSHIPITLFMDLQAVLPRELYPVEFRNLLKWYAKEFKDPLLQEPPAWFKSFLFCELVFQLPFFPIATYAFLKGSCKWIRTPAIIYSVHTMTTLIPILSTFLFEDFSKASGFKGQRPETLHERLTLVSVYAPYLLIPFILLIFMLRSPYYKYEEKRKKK
Briefly: Radioligand competition binding at Sigma-2 receptor ([3H]-DTG, untransfected MCF-7). The conditions noted are these: displacement of 2.5 nM [3H]DTG, untransfected MCF-7 cells; average of 2-3 experiments ± SEM; read-out: S2R affinity (Ki). As for the experimental part: Ki values were calculated from IC50 values using the Cheng-Prusoff equation.

Setting [4] is: 135 mg/kg starting 48 hours after tMCAO, 14-15 days after tMCAO, vs vehicle.

By Ki is commonly meant a measure of affinity in units of concentration, obtained from inhibition or displacement.

In the case of `CCN(CC)CCOCCOC(=O)C(CC)(CC)c1ccccc1` [Oxeladin], in data set [1] (6-150 mg/kg daily oral gavage, 10 days, male rats), the “mortality or overt toxicity” value is on record as “no mortality or overt toxicity observed”. The molecule further yielded a well-tolerated dose in data set [1] (rat, in vivo, po) not below 150 mg/kg. Further, in data set [2] (setting [4]), the “BrdU staining (area of BrdU+ cells) in the cerebral cortex” value is listed as “significantly smaller area; also recorded: significantly reduced” and the “BrdU staining in the striatum” value is “did not alter BrdU staining”. Moreover, the “BrdU positive cells in the subventricular zone (SVZ), infarcted hemisphere” value in data set [2] (135 mg/kg, 14-15 days after tMCAO, vs vehicle) is “no differences in BrdU+ cells between treatment groups; also recorded: did not reveal a significant difference”. Further, in data set [2] (overall conclusion), the “cell proliferation in the brain or SVZ after tMCAO” value is listed as “does not enhance cell proliferation”. The “Efficacy of BDNF secretion” value in the data set on neuronal MN9D cell line was found to be 0.55 ± 0.04. The inhibition constant Ki in data set [3] was determined as 148 ± 64 nM.
